{"source": "PubChem BioAssay (NCI)", "assay_in_all_cases": "growth of human tumour cells (NCI), 48 h", "key": {"MDA-MB-231 breast": {"tested_on": "MDA-MB-231 breast"}, "COLO 205 colon": {"tested_on": "COLO 205 colon"}, "HCT-116 colon": {"tested_on": "HCT-116 colon"}, "T-47D breast": {"tested_on": "T-47D breast"}, "SF-539 CNS": {"tested_on": "SF-539 CNS"}, "ACHN renal": {"tested_on": "ACHN renal"}, "A498 renal": {"tested_on": "A498 renal"}, "HOP-92 NSCLC": {"tested_on": "HOP-92 NSCLC"}, "SW-620 colon": {"tested_on": "SW-620 colon"}, "EKVX NSCLC": {"tested_on": "EKVX NSCLC"}, "SK-OV-3 ovarian": {"tested_on": "SK-OV-3 ovarian"}, "MCF7 breast": {"tested_on": "MCF7 breast"}, "BT-549 breast": {"tested_on": "BT-549 breast"}, "M14 melanoma": {"tested_on": "M14 melanoma"}, "SF-268 CNS": {"tested_on": "SF-268 CNS"}, "OVCAR-3 ovarian": {"tested_on": "OVCAR-3 ovarian"}, "PC-3 prostate": {"tested_on": "PC-3 prostate"}, "NCI-H226 lung": {"tested_on": "NCI-H226 lung"}, "U251 CNS": {"tested_on": "U251 CNS"}, "UACC-257 melanoma": {"tested_on": "UACC-257 melanoma"}, "K-562 leukemia": {"tested_on": "K-562 leukemia"}, "SK-MEL-28 melanoma": {"tested_on": "SK-MEL-28 melanoma"}, "SK-MEL-2 melanoma": {"tested_on": "SK-MEL-2 melanoma"}, "IGROV1 ovarian": {"tested_on": "IGROV1 ovarian"}, "KM12 colon": {"tested_on": "KM12 colon"}, "SN12C renal": {"tested_on": "SN12C renal"}, "HCC-2998 colon": {"tested_on": "HCC-2998 colon"}, "SK-MEL-5 melanoma": {"tested_on": "SK-MEL-5 melanoma"}, "SF-295 CNS": {"tested_on": "SF-295 CNS"}, "OVCAR-5 ovarian": {"tested_on": "OVCAR-5 ovarian"}, "CCRF-CEM leukemia": {"tested_on": "CCRF-CEM leukemia"}, "TK-10 renal": {"tested_on": "TK-10 renal"}, "NCI/ADR-RES ovarian": {"tested_on": "NCI/ADR-RES ovarian"}, "MDA-N": {"tested_on": "MDA-N"}, "DU-145 prostate": {"tested_on": "DU-145 prostate"}, "CAKI-1 renal": {"tested_on": "CAKI-1 renal"}, "LOX IMVI melanoma": {"tested_on": "LOX IMVI melanoma"}, "MOLT-4 leukemia": {"tested_on": "MOLT-4 leukemia"}, "HCT-15 colon": {"tested_on": "HCT-15 colon"}, "A549 NSCLC": {"tested_on": "A549 NSCLC"}, "OVCAR-4 ovarian": {"tested_on": "OVCAR-4 ovarian"}, "UO-31 renal": {"tested_on": "UO-31 renal"}, "786-0 renal": {"tested_on": "786-0 renal"}, "MDA-MB-435": {"tested_on": "MDA-MB-435"}, "MALME-3M melanoma": {"tested_on": "MALME-3M melanoma"}, "SR leukemia": {"tested_on": "SR leukemia"}, "SNB-75 CNS": {"tested_on": "SNB-75 CNS"}, "SNB-19 CNS": {"tested_on": "SNB-19 CNS"}, "NCI-H522 lung": {"tested_on": "NCI-H522 lung"}, "OVCAR-8 ovarian": {"tested_on": "OVCAR-8 ovarian"}, "HS 578T breast": {"tested_on": "HS 578T breast"}, "RXF 393 renal": {"tested_on": "RXF 393 renal"}, "UACC-62 melanoma": {"tested_on": "UACC-62 melanoma"}, "NCI-H23 lung": {"tested_on": "NCI-H23 lung"}, "HT29 colon": {"tested_on": "HT29 colon"}, "NCI-H460 lung": {"tested_on": "NCI-H460 lung"}}, "note": "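Five compound concentrations were applied to cells in 96-well plates for 48 hours; endpoints were derived by simple linear interpolation of the resulting dose-response curve. TGI denotes the concentration required for complete inhibition of growth.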"}
{"smiles": "CC(C)=CC(=O)c1[nH]c2ccccc2c1CC(=O)NCCc1cncn1C", "values": [{"measurement": "TGI", "setting": "MDA-MB-231 breast", "result": "> 100", "unit": "µM"}, {"measurement": "TGI", "setting": "COLO 205 colon", "result": 79.6, "unit": "µM"}, {"measurement": "TGI", "setting": "HCT-116 colon", "result": "> 100", "unit": "µM"}, {"measurement": "TGI", "setting": "T-47D breast", "result": "> 100", "unit": "µM"}, {"measurement": "TGI", "setting": "SF-539 CNS", "result": "> 100", "unit": "µM"}, {"measurement": "TGI", "setting": "ACHN renal", "result": "> 100", "unit": "µM"}, {"measurement": "TGI", "setting": "A498 renal", "result": 91.9, "unit": "µM"}, {"measurement": "TGI", "setting": "HOP-92 NSCLC", "result": "> 100", "unit": "µM"}, {"measurement": "TGI", "setting": "SW-620 colon", "result": "> 100", "unit": "µM"}, {"measurement": "TGI", "setting": "EKVX NSCLC", "result": 83.4, "unit": "µM"}, {"measurement": "TGI", "setting": "SK-OV-3 ovarian", "result": "> 100", "unit": "µM"}, {"measurement": "TGI", "setting": "MCF7 breast", "result": "> 100", "unit": "µM"}, {"measurement": "TGI", "setting": "BT-549 breast", "result": "> 100", "unit": "µM"}, {"measurement": "TGI", "setting": "M14 melanoma", "result": "> 100", "unit": "µM"}, {"measurement": "TGI", "setting": "SF-268 CNS", "result": "> 100", "unit": "µM"}, {"measurement": "TGI", "setting": "OVCAR-3 ovarian", "result": "> 100", "unit": "µM"}, {"measurement": "TGI", "setting": "PC-3 prostate", "result": "> 100", "unit": "µM"}, {"measurement": "TGI", "setting": "NCI-H226 lung", "result": "> 100", "unit": "µM"}, {"measurement": "TGI", "setting": "U251 CNS", "result": "> 100", "unit": "µM"}, {"measurement": "TGI", "setting": "UACC-257 melanoma", "result": "> 100", "unit": "µM"}, {"measurement": "TGI", "setting": "K-562 leukemia", "result": "> 100", "unit": "µM"}, {"measurement": "TGI", "setting": "SK-MEL-28 melanoma", "result": "> 100", "unit": "µM"}, {"measurement": "TGI", "setting": "SK-MEL-2 melanoma", "result": "> 100", "unit": "µM"}, {"measurement": "TGI", "setting": "IGROV1 ovarian", "result": "> 100", "unit": "µM"}, {"measurement": "TGI", "setting": "KM12 colon", "result": "> 100", "unit": "µM"}, {"measurement": "TGI", "setting": "SN12C renal", "result": "> 100", "unit": "µM"}, {"measurement": "TGI", "setting": "HCC-2998 colon", "result": 81.5, "unit": "µM"}, {"measurement": "TGI", "setting": "SK-MEL-5 melanoma", "result": "> 100", "unit": "µM"}, {"measurement": "TGI", "setting": "SF-295 CNS", "result": "> 100", "unit": "µM"}, {"measurement": "TGI", "setting": "OVCAR-5 ovarian", "result": "> 100", "unit": "µM"}, {"measurement": "TGI", "setting": "CCRF-CEM leukemia", "result": "> 100", "unit": "µM"}, {"measurement": "TGI", "setting": "TK-10 renal", "result": "> 100", "unit": "µM"}, {"measurement": "TGI", "setting": "NCI/ADR-RES ovarian", "result": "> 100", "unit": "µM"}, {"measurement": "TGI", "setting": "MDA-N", "result": "> 100", "unit": "µM"}, {"measurement": "TGI", "setting": "DU-145 prostate", "result": "> 100", "unit": "µM"}, {"measurement": "TGI", "setting": "CAKI-1 renal", "result": "> 100", "unit": "µM"}, {"measurement": "TGI", "setting": "LOX IMVI melanoma", "result": "> 100", "unit": "µM"}, {"measurement": "TGI", "setting": "MOLT-4 leukemia", "result": "> 100", "unit": "µM"}, {"measurement": "TGI", "setting": "HCT-15 colon", "result": "> 100", "unit": "µM"}, {"measurement": "TGI", "setting": "A549 NSCLC", "result": "> 100", "unit": "µM"}, {"measurement": "TGI", "setting": "OVCAR-4 ovarian", "result": "> 100", "unit": "µM"}, {"measurement": "TGI", "setting": "UO-31 renal", "result": 47.6, "unit": "µM"}, {"measurement": "TGI", "setting": "786-0 renal", "result": "> 100", "unit": "µM"}, {"measurement": "TGI", "setting": "MDA-MB-435", "result": "> 100", "unit": "µM"}, {"measurement": "TGI", "setting": "MALME-3M melanoma", "result": "> 100", "unit": "µM"}, {"measurement": "TGI", "setting": "SR leukemia", "result": 68, "unit": "µM"}, {"measurement": "TGI", "setting": "SNB-75 CNS", "result": "> 100", "unit": "µM"}, {"measurement": "TGI", "setting": "SNB-19 CNS", "result": "> 100", "unit": "µM"}, {"measurement": "TGI", "setting": "NCI-H522 lung", "result": 84.6, "unit": "µM"}, {"measurement": "TGI", "setting": "OVCAR-8 ovarian", "result": "> 100", "unit": "µM"}, {"measurement": "TGI", "setting": "HS 578T breast", "result": "> 100", "unit": "µM"}, {"measurement": "TGI", "setting": "RXF 393 renal", "result": 83.4, "unit": "µM"}, {"measurement": "TGI", "setting": "UACC-62 melanoma", "result": "> 100", "unit": "µM"}, {"measurement": "TGI", "setting": "NCI-H23 lung", "result": "> 100", "unit": "µM"}, {"measurement": "TGI", "setting": "HT29 colon", "result": "> 100", "unit": "µM"}, {"measurement": "TGI", "setting": "NCI-H460 lung", "result": "> 100", "unit": "µM"}]}
